# From patent publication US7902227B2, “C-7 isoxazolinyl quinolone / naphthyridine derivatives useful as antibacterial agents” (Janssen Pharmaceutica NV., priority 2008, dated 2011)
# Key:
# Format in all cases: cell-based
# [1] = system: strain B, fluoroquinolone-resistant clinical isolate of Streptococcus pneumoniae; experiment: In vitro antibacterial activity (MIC), microdilution broth method (NCCLS), strain B; conditions: read-out: In vitro Antibacterial Activity MIC, B
# Description: (§1) Minimal inhibitory concentration (MIC) has been an indicator of in vitro antibacterial activity widely used in the art. The in vitro antimicrobial activity of representative compounds of the present invention was determined by the microdilution broth method following the test method from the National Committee for Clinical Laboratory Standards (NCCLS). This method is described in the NCCLS Document M7-A4, Vol. 17, No. 2, “Methods for Dilution Antimicrobial Susceptibility Test for Bacteria that Grow Aerobically—Fourth Edition”, which is incorporated herein by reference.
# (§2) In this method two-fold serial dilutions of drug in cation adjusted Mueller-Hinton broth are added to wells in microdilution trays. The test organisms are prepared by adjusting the turbidity of actively growing broth cultures so that the final concentration of test organism after it is added to the wells is approximately 5×10^4 CFU/well.
# (§3) Following inoculation of the microdilution trays, the trays are incubated at 35° C. for 16-20 hours and then read. […] The amount of growth in the wells containing the test compound is compared with the amount of growth in the growth-control wells (no test compound) used in each tray. As set forth in Table 4, representative compounds of the present invention were tested against a variety of pathogenic bacteria resulting in a range of activities depending on the organism tested.
# [2] = system: Staphylococcus aureus OC4172; experiment: In vitro antibacterial activity (MIC), microdilution broth method (NCCLS), strain A; conditions: cation adjusted Mueller-Hinton broth, 35° C., 16-20 hours
# Description: as §1, §2, §3
# [3] = system: strain C, fluoroquinolone-resistant clinical isolate of Streptococcus pneumoniae; experiment: In vitro antibacterial activity (MIC), microdilution broth method (NCCLS), strain C; conditions: read-out: In vitro Antibacterial Activity MIC, C
# Description: as §1, §2, §3
# [4] = system: strain D, fluoroquinolone-resistant clinical isolate of Streptococcus pneumoniae; experiment: In vitro antibacterial activity (MIC), microdilution broth method (NCCLS), strain D; conditions: read-out: In vitro Antibacterial Activity MIC, D
# Description: as §1, §2, §3
# [5] = system: Streptococcus pneumoniae ATCC 49619; experiment: In vitro antibacterial activity (MIC), microdilution broth method (NCCLS), strain E; conditions: ATCC49619, 35° C., 16-20 hours
# Description: as §1, §2, §3
SMILES,MIC [1],MIC [2],MIC [3],MIC [4],MIC [5]
"COc1ccc(C2=NOC3CN(c4cc5c(cc4F)c(=O)c(C(=O)O)cn5C4CC4)CC23)cn1 (stereo not shown) [ID No. 134, 1-Cyclopropyl-6-fluoro-7-[3-(6-methoxy-pyridin-3-yl)-3a,4,6,6a-tetrahydro-pyrrolo[3,4-d]isoxazol-5-yl]-4-oxo-1,4-dihydro-quinoline-3-carboxylic acid]",16 µg/mL,0.12 µg/mL,> 16 µg/mL,8 µg/mL,2 µg/mL
"O=C(O)c1cn(C2CC2)c2cc(N3CC4ON=C(c5ccccn5)C4C3)c(F)cc2c1=O (stereo not shown) [ID No. 135, 1-Cyclopropyl-6-fluoro-7-[3-(pyridin-2-yl)-3a,4,6,6a-tetrahydro-pyrrolo[3,4-d]isoxazol-5-yl]-4-oxo-1,4-dihydro-quinoline-3-carboxylic acid]",8 µg/mL,0.03 µg/mL,2 µg/mL,4 µg/mL,1 µg/mL
"O=C(O)c1cn(C2CC2)c2cc(N3CC4ON=C(c5cccnc5)C4C3)c(F)cc2c1=O (stereo not shown) [ID No. 136, 1-Cyclopropyl-6-fluoro-7-[3-(pyridin-3-yl)-3a,4,6,6a-tetrahydro-pyrrolo[3,4-d]isoxazol-5-yl]-4-oxo-1,4-dihydro-quinoline-3-carboxylic acid]",8 µg/mL,0.06 µg/mL,4 µg/mL,8 µg/mL,1 µg/mL
"NCC1=NOC2CN(c3nc4c(cc3F)c(=O)c(C(=O)O)cn4-c3ccc(F)cc3F)CC12 (stereo not shown) [ID No. 200, 7-(3-Aminomethyl-3a,4,6,6a-tetrahydro-pyrrolo[3,4-d]isoxazol-5-yl)-1-(2,4-difluoro-phenyl)-6-fluoro-4-oxo-1,4-dihydro-[1,8]naphthyridine-3-carboxylic acid]",> 16 µg/mL,0.12 µg/mL,> 16 µg/mL,> 16 µg/mL,1 µg/mL
"NCC1=NOC2CN(c3nc4c(cc3F)c(=O)c(C(=O)O)cn4C3CC3)CC12 (stereo not shown) [ID No. 201, 7-(3-Aminomethyl-3a,4,6,6a-tetrahydro-pyrrolo[3,4-d]isoxazol-5-yl)-1-cyclopropyl-6-fluoro-4-oxo-1,4-dihydro-[1,8]naphthyridine-3-carboxylic acid]",> 16 µg/mL,0.5 µg/mL,> 16 µg/mL,> 16 µg/mL,4 µg/mL
